# Measured values reported in ChEMBL document CHEMBL1201862, “PubChem BioAssay data set” (2004).
# Active and inactive are the calls of the source.
# Legend:
# cells [1] = format: functional, cell-based
# cells [2] = format: functional, cell-based; remark: listed apart in the source
# Vero = assay: cells; format: functional; conditions: Chlorocebus sabaeus
# Nonstructural protein 1 = Nonstructural protein 1 (Influenza A virus, UniProt Q194T2); format: functional, Influenza A virus (A/California/07/2009(H1N1))
# [3] = Luminescence Cell-Based Dose Response HTS to Identify Activators of Luciferase Translation or Activity in H4 […] Cells. [Related pubchem assays: 1829 (Project Summary), 1814 (Primary HTS)]; format: functional
# H4 = assay: Luminescence Cell-Based Dose Response HTS to Identify Activators of 5'UTR Stem-Loop Driven Prion Protein mRNA Translation in H4 Neuroglioblastoma Cells. [Related pubchem assays: 1829 (Project Summary), 1814 (Primary HTS)]; format: functional; conditions: Homo sapiens
# Protein skinhead-1 = biological target: T1, Protein skinhead-1 (Caenorhabditis elegans, UniProt P34707); format: functional
# T1 sequence (P34707 whole entry): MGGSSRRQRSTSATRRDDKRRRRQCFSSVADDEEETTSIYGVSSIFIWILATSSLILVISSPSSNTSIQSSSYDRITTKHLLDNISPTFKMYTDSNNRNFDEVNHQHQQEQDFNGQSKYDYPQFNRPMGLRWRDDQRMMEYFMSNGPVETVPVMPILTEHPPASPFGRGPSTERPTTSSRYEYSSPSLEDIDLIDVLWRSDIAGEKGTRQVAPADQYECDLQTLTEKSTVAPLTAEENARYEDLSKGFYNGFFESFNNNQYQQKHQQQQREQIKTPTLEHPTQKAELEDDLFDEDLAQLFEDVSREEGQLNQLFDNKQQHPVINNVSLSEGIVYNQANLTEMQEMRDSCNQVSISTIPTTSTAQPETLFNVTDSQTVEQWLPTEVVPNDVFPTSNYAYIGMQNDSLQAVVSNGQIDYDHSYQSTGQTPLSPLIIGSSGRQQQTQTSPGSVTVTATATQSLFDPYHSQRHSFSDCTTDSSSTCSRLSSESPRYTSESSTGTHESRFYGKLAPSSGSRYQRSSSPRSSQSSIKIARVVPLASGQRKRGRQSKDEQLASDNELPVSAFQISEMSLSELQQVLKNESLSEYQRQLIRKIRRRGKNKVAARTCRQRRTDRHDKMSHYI
# [4] = Luminescence Cell-Based Dose Confirmation HTS to Identify Activators of 5'UTR Stem-Loop Driven Alpha-Synuclein mRNA Translation in H4 Neuroglioblastoma Cells. [Related pubchem assays: 1829 (Project Summary), 1814 (Primary HTS)]; format: functional
# [5] = biological target: T2, High affinity choline transporter 1 (Homo sapiens, UniProt Q9GZV3); assay: human choline transporter blockers, potency – cell-based, 5-point CRC, membrane potential dye, dose response (AID 504840); format: functional
# T2 sequence (Q9GZV3 whole entry): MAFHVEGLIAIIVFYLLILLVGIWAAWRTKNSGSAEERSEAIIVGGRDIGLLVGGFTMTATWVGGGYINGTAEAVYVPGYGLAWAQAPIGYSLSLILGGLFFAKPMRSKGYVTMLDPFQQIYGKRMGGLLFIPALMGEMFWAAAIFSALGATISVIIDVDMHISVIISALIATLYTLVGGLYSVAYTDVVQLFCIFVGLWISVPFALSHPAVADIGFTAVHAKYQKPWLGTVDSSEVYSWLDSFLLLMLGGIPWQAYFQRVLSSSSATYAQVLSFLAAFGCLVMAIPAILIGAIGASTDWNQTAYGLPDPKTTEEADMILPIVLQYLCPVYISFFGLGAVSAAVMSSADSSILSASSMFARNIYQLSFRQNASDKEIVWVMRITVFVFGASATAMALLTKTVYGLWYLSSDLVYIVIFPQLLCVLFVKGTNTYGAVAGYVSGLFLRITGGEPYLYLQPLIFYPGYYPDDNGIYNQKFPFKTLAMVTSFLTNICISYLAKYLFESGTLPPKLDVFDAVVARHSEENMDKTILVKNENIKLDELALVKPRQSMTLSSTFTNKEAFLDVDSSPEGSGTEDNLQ
# Trypsin = Trypsin (Sus scrofa, UniProt P00761); assay: trypsin protease activity blockade – biochemical, quenched peptide fluorescence, cherry-pick, selectivity assay for Rce1 protease inhibitor project, dose response (AID 488789)
# [6] = biological target: T3, Rac GTPase-activating protein 1 (Homo sapiens, UniProt Q9H0H5); assay: blockers of MgcRacGAP-driven Rac1 GTP hydrolysis – biochemical, ADP Hunter fluorescence, primary and confirmatory, confirmation (AID 624330); format: functional
# T3 sequence (Q9H0H5 whole entry): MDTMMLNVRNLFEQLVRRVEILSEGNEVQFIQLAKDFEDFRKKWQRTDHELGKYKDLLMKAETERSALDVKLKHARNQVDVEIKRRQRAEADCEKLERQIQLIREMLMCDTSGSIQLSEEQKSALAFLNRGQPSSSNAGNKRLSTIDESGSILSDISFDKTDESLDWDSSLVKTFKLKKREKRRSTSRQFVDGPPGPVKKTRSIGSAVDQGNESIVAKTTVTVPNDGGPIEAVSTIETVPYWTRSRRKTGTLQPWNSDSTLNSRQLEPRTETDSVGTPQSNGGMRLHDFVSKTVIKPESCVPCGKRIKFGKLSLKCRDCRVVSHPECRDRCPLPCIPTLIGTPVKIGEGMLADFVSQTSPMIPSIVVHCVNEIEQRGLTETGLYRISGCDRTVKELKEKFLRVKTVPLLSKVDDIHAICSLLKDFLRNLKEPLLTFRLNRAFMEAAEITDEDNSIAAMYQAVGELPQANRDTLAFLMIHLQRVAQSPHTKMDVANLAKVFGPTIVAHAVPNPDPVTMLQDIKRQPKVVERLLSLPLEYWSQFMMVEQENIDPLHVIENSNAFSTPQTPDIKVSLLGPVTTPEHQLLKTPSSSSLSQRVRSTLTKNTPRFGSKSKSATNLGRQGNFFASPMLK
# Large T antigen = Large T antigen (Simian virus 40, UniProt P03070); format: functional, Betapolyomavirus macacae;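 further: Confirmatory-stage PubChem screen for compounds that inhibit SV40 T antigen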
# Genome polyprotein = Genome polyprotein (dengue virus type 2, UniProt P29990); assay: flavivirus cap methylation enzyme inhibition – biochemical, confirmation dose response, primary screen (AID 588689); format: functional
# [7] = biological target: T4, Ubiquitin-conjugating enzyme E2 N (Homo sapiens, UniProt P61088); format: functional;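 further: Dose-response confirmation in a TR-FRET assay detecting UBC13-driven polyubiquitin chain formation, inhibition measured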
# T4 sequence (P61088 whole entry): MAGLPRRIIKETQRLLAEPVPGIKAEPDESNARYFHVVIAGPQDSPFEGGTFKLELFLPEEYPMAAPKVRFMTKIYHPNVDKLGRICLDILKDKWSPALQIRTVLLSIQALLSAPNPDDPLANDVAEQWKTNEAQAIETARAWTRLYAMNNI
# [8] = biological target: FAD-linked sulfhydryl oxidase ALR (Homo sapiens, UniProt P55789); assay: ALR-catalysed DTT oxidation blockers – biochemical, H2O2 detection, luminescence, cherry-pick, dose response (AID 493248)
# [9] = THP-1 cell cytotoxicity, dose response, cytotoxicity control for non-replicating M. tuberculosis project (AID 489025); format: functional
# [10] = HIV-1 AD8 envelope cell-cell fusion blockers – cherry-pick, dose response (AID 652062); format: functional, cell-based;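 further: luciferase signal from cell-cell fusion driven by HIV-1 clade B AD8 Env; potency is for inhibitors of fusion seen as a drop in luminescence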
# Streptokinase A = biological target: T5, Streptokinase A (Streptococcus pyogenes serotype M1, UniProt P10520); assay: viability-normalized secreted streptokinase activity reduction – plasminogen activation absorbance, OD405, dose response (AID 1914); format: functional, Streptococcus pyogenes M1 GAS;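 further: secreted streptokinase activity via plasminogen activation per viability signal from cell pellet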
# T5 sequence (P10520 whole entry): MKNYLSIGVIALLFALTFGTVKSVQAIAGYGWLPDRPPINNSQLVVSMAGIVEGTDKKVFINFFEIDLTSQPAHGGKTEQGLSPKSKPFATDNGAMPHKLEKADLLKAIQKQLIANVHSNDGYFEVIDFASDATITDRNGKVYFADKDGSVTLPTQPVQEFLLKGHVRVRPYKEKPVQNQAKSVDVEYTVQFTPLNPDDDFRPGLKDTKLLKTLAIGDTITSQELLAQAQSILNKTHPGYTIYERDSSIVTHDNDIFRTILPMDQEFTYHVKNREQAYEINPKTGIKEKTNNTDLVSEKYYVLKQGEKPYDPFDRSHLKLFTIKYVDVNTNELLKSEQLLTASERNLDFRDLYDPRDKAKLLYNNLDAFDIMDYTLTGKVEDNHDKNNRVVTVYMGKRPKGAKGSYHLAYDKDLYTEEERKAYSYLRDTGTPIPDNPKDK
# [11] = biological target: Luciferin 4-monooxygenase (Photinus pyralis, UniProt P08659); assay: inhibition of purified Photinus pyralis luciferase – biochemical, luminescence, dose response (AID 1891)
# [12] = Luminescence Cell-Based Dose Confirmation HTS to Identify Inhibitors of Platelet Dense Granule Release. [Related pubchem assays: 1663 (Primary HTS), 1678 (Summary of Project)]; format: functional
# H9c2 = assay: cells; format: functional, cell-based; conditions: Rattus norvegicus, H9c2, Myocardium;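 further: confirmatory concentration-response retest of ultra-high-throughput screening hits for modulation of myocardial damage; cell death induced by hydrogen peroxide oxidative stress; compound pretreatment for 60 min then peroxide exposure for 2 h; potency is for protecting the cells against peroxide damage rather than for killing them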
# INS1 = assay: INS-1E survival protection against cytokine death – cell-based, luminescence, retest, dose response (AID 449756); format: functional; conditions: Rattus norvegicus;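 further: cell death triggered by IL-1 beta plus TNF-alpha plus IFN-gamma mixture; protective hits raise ATP signal compared with cytokine alone wells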
# [13] = viability of uninfected HEp-2 cells – cell-based, HTS, cytotoxicity control for RSV inhibitor project, dose response (AID 2410); format: functional; conditions: human respiratory syncytial virus
# Sequence of FAD-linked sulfhydryl oxidase ALR (P55789 whole entry): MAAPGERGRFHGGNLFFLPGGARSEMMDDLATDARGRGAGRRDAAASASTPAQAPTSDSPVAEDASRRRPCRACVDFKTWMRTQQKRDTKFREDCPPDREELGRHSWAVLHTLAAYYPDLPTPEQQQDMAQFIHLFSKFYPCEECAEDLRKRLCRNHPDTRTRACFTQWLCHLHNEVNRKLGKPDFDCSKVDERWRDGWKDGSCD
# Sequence of Large T antigen (P03070 whole entry): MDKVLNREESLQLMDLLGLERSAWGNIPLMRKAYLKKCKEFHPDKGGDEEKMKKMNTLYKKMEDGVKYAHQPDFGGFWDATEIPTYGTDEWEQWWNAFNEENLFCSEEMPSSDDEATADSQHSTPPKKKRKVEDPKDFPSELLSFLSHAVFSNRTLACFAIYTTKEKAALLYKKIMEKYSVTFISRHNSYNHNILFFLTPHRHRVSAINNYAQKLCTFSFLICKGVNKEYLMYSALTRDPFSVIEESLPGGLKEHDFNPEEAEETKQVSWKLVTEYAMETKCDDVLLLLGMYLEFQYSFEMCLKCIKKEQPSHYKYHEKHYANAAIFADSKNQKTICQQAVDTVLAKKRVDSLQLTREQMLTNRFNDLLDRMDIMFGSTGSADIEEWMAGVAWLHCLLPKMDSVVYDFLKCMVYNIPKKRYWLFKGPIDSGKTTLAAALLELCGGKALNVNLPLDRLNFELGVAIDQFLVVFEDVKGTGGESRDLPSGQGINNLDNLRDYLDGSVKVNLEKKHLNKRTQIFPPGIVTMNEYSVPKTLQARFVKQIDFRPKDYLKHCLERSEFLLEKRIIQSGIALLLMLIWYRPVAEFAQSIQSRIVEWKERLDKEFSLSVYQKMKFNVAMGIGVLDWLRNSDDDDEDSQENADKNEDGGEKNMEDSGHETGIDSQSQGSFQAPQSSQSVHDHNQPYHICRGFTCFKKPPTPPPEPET
# Sequence of Nonstructural protein 1 (Q194T2 whole entry): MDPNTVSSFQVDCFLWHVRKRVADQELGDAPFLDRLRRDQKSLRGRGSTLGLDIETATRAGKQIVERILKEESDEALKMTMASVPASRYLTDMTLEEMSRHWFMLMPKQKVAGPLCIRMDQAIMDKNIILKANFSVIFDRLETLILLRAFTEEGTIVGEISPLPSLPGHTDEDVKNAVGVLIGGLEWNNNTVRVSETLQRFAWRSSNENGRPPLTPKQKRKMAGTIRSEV
# Sequence of Genome polyprotein (P29990 2492-3391 limits assumed): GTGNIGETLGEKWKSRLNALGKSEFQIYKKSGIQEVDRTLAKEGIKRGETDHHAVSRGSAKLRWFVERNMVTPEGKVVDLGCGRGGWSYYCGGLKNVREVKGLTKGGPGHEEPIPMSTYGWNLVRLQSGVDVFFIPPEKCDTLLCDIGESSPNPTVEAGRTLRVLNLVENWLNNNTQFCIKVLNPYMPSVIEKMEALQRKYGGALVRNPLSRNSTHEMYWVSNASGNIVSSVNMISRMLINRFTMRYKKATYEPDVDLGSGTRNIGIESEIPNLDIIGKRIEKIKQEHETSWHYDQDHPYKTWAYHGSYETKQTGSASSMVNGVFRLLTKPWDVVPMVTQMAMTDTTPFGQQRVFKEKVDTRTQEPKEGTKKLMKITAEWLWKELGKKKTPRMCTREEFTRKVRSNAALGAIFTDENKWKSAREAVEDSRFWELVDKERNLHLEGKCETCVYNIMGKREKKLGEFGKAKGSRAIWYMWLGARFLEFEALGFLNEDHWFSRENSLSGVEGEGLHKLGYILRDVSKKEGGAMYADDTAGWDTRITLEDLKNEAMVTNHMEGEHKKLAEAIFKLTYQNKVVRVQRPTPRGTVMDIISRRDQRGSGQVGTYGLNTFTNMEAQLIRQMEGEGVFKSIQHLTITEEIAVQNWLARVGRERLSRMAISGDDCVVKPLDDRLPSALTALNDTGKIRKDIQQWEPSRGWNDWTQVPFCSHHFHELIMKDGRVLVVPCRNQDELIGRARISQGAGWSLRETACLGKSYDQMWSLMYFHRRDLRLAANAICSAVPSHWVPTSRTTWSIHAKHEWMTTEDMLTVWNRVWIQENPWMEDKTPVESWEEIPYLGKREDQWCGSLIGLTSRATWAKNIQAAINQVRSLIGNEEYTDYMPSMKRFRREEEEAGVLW
# Sequence of Trypsin (P00761 whole entry): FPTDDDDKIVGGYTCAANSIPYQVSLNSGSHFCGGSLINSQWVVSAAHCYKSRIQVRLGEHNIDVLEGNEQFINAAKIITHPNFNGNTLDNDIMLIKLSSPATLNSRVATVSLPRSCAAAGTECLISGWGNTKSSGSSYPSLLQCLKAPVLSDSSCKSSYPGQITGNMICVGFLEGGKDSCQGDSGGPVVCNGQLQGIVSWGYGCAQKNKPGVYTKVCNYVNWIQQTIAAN
# Sequence of Luciferin 4-monooxygenase (P08659 whole entry): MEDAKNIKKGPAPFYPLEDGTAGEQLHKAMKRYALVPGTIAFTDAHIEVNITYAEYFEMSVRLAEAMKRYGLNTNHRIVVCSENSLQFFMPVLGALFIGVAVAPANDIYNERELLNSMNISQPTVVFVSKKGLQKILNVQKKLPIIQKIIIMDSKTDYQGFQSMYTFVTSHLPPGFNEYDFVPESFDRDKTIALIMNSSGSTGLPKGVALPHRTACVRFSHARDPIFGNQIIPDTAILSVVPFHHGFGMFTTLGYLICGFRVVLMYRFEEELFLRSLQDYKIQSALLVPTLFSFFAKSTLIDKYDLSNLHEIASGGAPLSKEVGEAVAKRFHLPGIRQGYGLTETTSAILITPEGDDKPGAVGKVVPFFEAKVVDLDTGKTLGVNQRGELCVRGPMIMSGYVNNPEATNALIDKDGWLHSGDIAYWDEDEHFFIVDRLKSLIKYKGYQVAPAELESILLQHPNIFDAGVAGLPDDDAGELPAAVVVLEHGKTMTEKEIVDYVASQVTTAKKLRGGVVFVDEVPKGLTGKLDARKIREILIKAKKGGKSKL
compound,measurement,setting,value
CCOc1nc(Nc2ccc(OC)cc2)nc(OCC)n1,EC50,cells [1],> 350 µM (not active)
same,EC50,cells [2],> 350 µM (not active)
CCOC(=O)c1cnc(SCc2ccc(Cl)c(Cl)c2)nc1N1CC1,CC50,Vero,> 25 µM (active)
CC(C)(C)C1=CC(=Nc2ccccc2N)C=C(C(C)(C)C)C1=O,IC50,Nonstructural protein 1,10.9 µM (active)
O=[N+]([O-])c1ccccc1NCCOc1ccccc1,EC50,[3],24 µM (active)
same,EC50,H4,5.5 µM (active)
same,IC50,Nonstructural protein 1,> 100 µM (active)
same,IC50,Protein skinhead-1,96.3 µM (inactive)
same,EC50,[4],23.6 µM (active)
CN1Cc2sc(N)c(C#N)c2CC1(C)C,IC50,[5],22.9 µM (active)
COc1ccccc1N1CCN(C(=O)c2coc(=O)c(Br)c2)CC1,AC50,Trypsin,9.18 µM (active)
COC(=O)c1ccccc1NC(=O)COC(=O)c1ccccc1N=Nc1ccc(N(C)C)cc1,IC50,Nonstructural protein 1,21.4 µM (active)
Cc1ccccc1N1C(=O)NC(=O)/C(=C\c2cnn(-c3ccccc3)c2)C1=O,IC50,[6],118 µM (active)
same,IC50,Large T antigen,44.9 µM (active)
same,IC50,Genome polyprotein,> 100 µM (active)
CCC[C@@H](CN1CCC[C@H]1CN1C(N)=NC[C@H]1CC(C)C)N1C[C@@H]([C@H](C)CC)N(CCCC2CCCC2)C1=N,IC50,[7],> 20 µM (inactive)
CCn1cnc2cc(NCc3ccc(N(C)C)cc3)ccc21,AC50,[8],5.86 µM (active)
same,IC50,Large T antigen,15.8 µM (active)
COc1ccc(C(=O)NC(Cc2ccc(OC(=O)c3ccc(OC)cc3)cc2)C(=O)O)cc1 (stereo not drawn),IC50,[5],9.12 µM (active)
NC(=O)C1CCCN(Cc2c(C(=O)N3CCc4ccccc4C3)nc3ccc(Cl)cn23)C1 (stereo not drawn),EC50,cells [1],> 350 µM (not active)
same,EC50,cells [2],> 350 µM (not active)
Cn1c(-c2cccc([N+](=O)[O-])c2)cnc1NCc1cccc(F)c1,AC50,[8],1.92 µM (active)
same,CC50,[9],> 40 µM (active)
CCCNC(=O)C[C@H]1C[C@H]2c3cc(NC(=O)CN(C)C)ccc3O[C@H]2[C@@H](CO)O1,AC50,[10],38.6 µM (active)
Cc1ccc(C2=NOC(=O)/C2=C\c2ccccc2)cc1,EC50,cells [1],> 350 µM (not active)
same,EC50,cells [2],> 350 µM (not active)
COc1cccc(C2CC(c3cccs3)=NN2C(=O)CSc2nc3c(cnn3-c3ccc(F)cc3)c(=O)[nH]2)c1OC (stereo not drawn),AC50,Trypsin,3.95 µM (active)
same,EC50,Streptokinase A,> 50 µM (not active)
CCN(CC)CCN1C(=O)C(O)=C(C(=O)c2ccc(C)cc2)C1c1cccnc1 (stereo not drawn),IC50,Large T antigen,18.9 µM (active)
O=C(NCCCn1ccnc1)c1cn(-c2ccccc2)nc1-c1ccc(F)cc1,IC50,[5],11.5 µM (active)
Fc1ccccc1N=C(S)Nc1ccc(Br)cc1,EC50,cells [1],> 350 µM (not active)
same,EC50,cells [2],169 µM (active)
CN(C)c1ccc(NC(=O)CN2CCC(O)(c3ccccc3)CC2)cc1,IC50,Large T antigen,7.29 µM (active)
CCOC(=O)N1CCC(N2C(=O)c3ccccc3C2Nc2cc(OC)c(OC)c(OC)c2)CC1 (stereo not drawn),EC50,[11],> 112 µM (not active)
same,EC50,[12],94.3 µM (active)
same,IC50,H9c2,> 79 µM (inactive)
O=C1ON=C(c2ccccc2)/C1=C/c1ccc(OS(=O)(=O)c2ccccc2)cc1,IC50,Large T antigen,67.3 µM (active)
same,IC50,Genome polyprotein,32.3 µM (active)
CC1CC(C)(C)CC2(C1)NC(=O)N(CC(=O)Nc1ccc3[nH]c(O)nc3c1)C2=O (stereo not drawn),IC50,[7],> 20 µM (inactive)
CCN(CC)c1ccc(N=C2C(=O)Nc3ccccc32)cc1,AC50,[8],2.06 µM (active)
same,AC50,INS1,20.2 µM (active)
same,IC50,Nonstructural protein 1,14.3 µM (active)
same,IC50,Genome polyprotein,> 100 µM (active)
CCn1ncc(CN2CCCC(C(=O)Nc3cccc(-c4cc5ccccc5[nH]4)c3)C2)c1C (stereo not drawn),IC50,Nonstructural protein 1,> 100 µM (active)
same,CC50,[13],16.1 µM (active)
COC(=O)c1ccc(-n2cncn2)c([N+](=O)[O-])c1,EC50,cells [1],> 350 µM (not active)
same,EC50,cells [2],> 350 µM (not active)
O=C(CCNC(=O)Cn1ccc2ccccc2c1=O)NCCN1CCN(c2ccccc2F)CC1,IC50,[7],> 20 µM (inactive)
